Source: US12110510B2, “Functional cortico-spinal-muscle assembled spheroids” (The Board of Trustees of the Leland Stanford Junior …, priority 2018, dated 2024)
Entries after “also recorded” stand apart in the source; their conditions may differ. One block for each compound: values may come before it.

Legend:
[1] = system: hCS-hSpS-hSkM assembloids; assay: Optogenetic stimulation of hCS in hCS-hSpS-hSkM assembloids, muscle displacement; assay type: cell-based, human; conditions: NBQX (50 μM) and APV (50 μM) added together; Chrim-expressing hCS, 625 nm
Description: Glutamate uncaging and optogenetic stimulation.
Contraction analysis. […] The mean covariance per field was plotted.

hSpS [2] = assay: Single-cell gene expression of hSpS with or without DAPT (BD Rhapsody); assay type: cell-based, human; conditions: hSpS differentiated in the presence of DAPT (2.5 μM, days 19, 21, 23) versus hSpS(−)DAPT; day 45
Experimental: To generate hSpS, hiPS cell medium was supplemented with dual SMAD inhibitors until day 5 and the WNT activator CHIR 99021 (3 μM, Selleckchem) from day 4 to day 18. On day 6, spheroids were transferred to neural medium supplemented with RA (0.1 μM, Sigma-Aldrich), EGF (20 ng ml-1; R&D Systems) and FGF-2 (10 ng ml-1; R&D Systems), with addition of the SHH modulator smoothened agonist (SAG, 0.1 μM, Millipore) from day 11. From day 7, the medium was changed every other day. […] For hSpS, the Notch inhibitor DAPT (2.5 μM, STEMCELL technologies) was added on days 19, 21 and 23. From day 43 onwards, the medium was changed every four to five days.
Single-cell gene expression (BD Rhapsody system). […] Cell labels and molecular indices were identified, and gene identity was determined by alignment against the gencode comprehensive hg19 reference. […] Gene expression profiles of 4,175 and 3,173 cells were recovered for hSpS with or without DAPT, respectively, with an average number of reads of ˜17,000, ˜2,400 molecules and ˜1,400 number of genes detected per cell with average molecular index coverage (that is, the number of times a molecule was sequenced) of 4.8. […]

hSC [3] = assay: Gene expression analysis (qPCR) of neuronal subtype markers in hSC or hSC+D; assay type: cell-based, human; conditions: DAPT+ condition (2.5 μM) versus hSC; day 30
Experimental: (§1) From day 4 in suspension, cultures were supplemented with the GSK-3 inhibitor CHIR 99021 (3 μM). On day 6, spheroids were transferred to neural medium containing neurobasal-A, B-27 supplement without vitamin A, GlutaMax (1:100), penicillin and streptomycin, and supplemented with retinoic acid (RA, 100 nM), EGF (20 ng/ml) and FGF-2 (10 ng/ml). On day 11 of differentiation spheroids were supplemented with the SHH pathway agonist Smoothened Agonist (SAG, 100 nM), in addition to the compounds described above. From day 7 onwards, media was changed every other day. For the hSC+D condition, spheroids received the gamma-secretase inhibitor DAPT (2.5 μM) on days 19, 21 and 23. From day 19, once the initial fate specification stage is finalized, hSCs were transferred to neural medium containing neurobasal-A, B-27 supplement without vitamin A, N−2 supplement, GlutaMax (1:100), penicillin and streptomycin (1:100), and supplemented with BDNF (20 ng/ml), IGF (10 ng/ml), L-Ascorbic Acid (AA, 200 nM) and cAMP (62.5 nM).

hSC [4] = assay: Immunocytochemistry of hSC cytoarchitecture; assay type: cell-based, human; conditions: DAPT+ hSC condition; day 45
Experimental: as §1

[5] = system: hCS-hSpS-hSkM assembloids; assay: Glutamate uncaging in hCS-hSpS-hSkM assembloids, muscle contraction; assay type: cell-based, human
Experimental: (§2) Generation of hSpS-hSkM or hCS-hSpS-hSkM assembloids. To generate neural-muscle assembloids, 3D hSkM that had been in differentiation medium for at least 10 days (see above) were removed from the silicone wells and placed on top of cell culture inserts (0.4 μm pore size; 353090, Corning) that were positioned in 6-well plates containing 2 ml of DMEM/F12 medium supplemented with 1% Non-Essential Amino Acids (NEAA, Life Technologies), 1% Insulin-Transferrin-Selenium (ITS, Life Technologies), 1% penicillin and streptomycin (Life Technologies), L-Ascorbic Acid (AA; 200 nM, Wako) and cAMP (50 nM, Sigma-Aldrich). Next, spheroids (either hSpS or hCS) were placed on the inserts containing 3D hSkM and arranged so that they were in contact with one another and were allowed to interact.
(§3) Glutamate uncaging and optogenetic stimulation. Intact assembloids were imaged under environmentally controlled conditions (37° C., 5% CO2) using a 5× objective in a confocal microscope (Leica SP8). Assembloids, still in transwells, were incubated in the environmentally controlled chamber for 20-30 minutes before imaging. […] At a frame rate of 14.7 frames/sec, a typical stimulation experiment consisted of 500 frames acquired during pre-stimulation, 5 frames of UV stimulation (in specified region of interest, ROI) and 200 frames acquired during poststimulation. For optogenetic stimulation, five pulses of light (625 nm, 68 ms in duration each and ˜68 seconds apart) were delivered using an optical fiber-coupled LED (400 μmdiameter, 13.2 mW; Thorlabs) that was directed towards the hCS.

hCS-hSkM assembloid = conditions: hCS assembled with hSkM, no hSpS
Experimental: as §2
as §3, with “For optogenetic stimulation, five pulses of light (625 nm, 68 ms in duration each and ˜68 seconds apart) were delivered using an optical fiber-coupled LED (400 μmdiameter, 13.2 mW; Thorlabs) that was directed towards the hCS.” left out

hSpS-hSkM assembloids = conditions: 405 nm, in the presence of MNI-caged glutamate (3.3 mM)
Experimental: as §2
as §3, with “For optogenetic stimulation, five pulses of light (625 nm, 68 ms in duration each and ˜68 seconds apart) were delivered using an optical fiber-coupled LED (400 μmdiameter, 13.2 mW; Thorlabs) that was directed towards the hCS.” left out

hSpS [6] = assay: Combinatorial growth factor matrix, gene expression of 16 markers at day 20; assay type: cell-based, human
Description: To establish hSpS differentiation conditions, we designed a combinatorial approach, where we used FGF-2, RA, and WNT and SHH modulators at varying concentrations following neural ectoderm specification of early spheroids. […] Briefly, hiPS cell colonies were lifted from plates using the enzyme dispase, moved to ultra-low attachment plates to form spheroids and exposed to dual SMAD inhibition as we have previously described. Starting on day 4 of in vitro differentiation, neural spheroids were exposed to 3 μM of the WNT activator CHIR-99021, and to 20 ng/ml EGF from day 6 onward. Neural spheroids also received a combination of RA (0.01 or 0.1 μM) and FGF-2 (0, 10 or 20 ng/ml) from day 6, and the SHH activator smoothened agonist (SAG; 0, 0.01, 0.1 or 1 μM) from day 11.
For the combinatorial growth factor matrix, small molecules were added on the same days as described above, and the concentrations for dual SMAD inhibitors, CHIR 99021 and EGF were the same as above. From day 7, the neural medium was changed every other day until day 20, when spheres were collected. No DAPT was added for this experiment.
Real-time quantitative PCR (qPCR). For qPCR analysis of spheroids, at least 2-3 spheroids were pooled per sample. mRNA was isolated using the RNeasy Mini kit and RNase-Free DNase set (Qiagen), and template cDNA was prepared by reverse transcription using the SuperScript Ill First-Strand Synthesis SuperMix for qRT-PCR (Life Technologies). qPCR was performed using Sybr Green (Roche) on a ViiA7 machine (Applied Biosystems, Life Technologies).

[7] = system: hSpS-limb assembloids (mouse limb buds); assay: Contraction of hSpS-limb assembloids; assay type: cell-based; conditions: curare 100 μM; 14 days after fusion
Experimental: Co-culture of mouse limb and spheroids. For mouse co-culture experiments, timed-pregnant females were sacrificed at E11.5, embryos were collected, and limb buds dissected (both forelimbs and hindlimbs were used for this experiment). Limbs and spheroids (at D25) were then assembled together by placing them in close proximity in a 1.5 ml microcentrifuge tube for 3 days in an incubator. One limb and one spheroid were placed per tube. On day 2 medium was carefully changed. Neural medium supplemented with N−2 supplement (Life Technologies, 17502048) was used. After assembly, mouse-spheroid cultures were placed in 24-well ultralow-attachment plates (Corning), and medium was changed every other day. For contraction quantification, assembloids were visualized using brightfield illumination in an EVOS FL Cell Imaging System (Life Technologies), and they were deemed to be contracting if they moved within a time-window of 30 seconds. Approval for mouse experiments was obtained from the Stanford University's Administrative Panel on Laboratory Animal Care (APLAC).

hSkM = hSkM calcium imaging (Cal-590 AM) in 2D co-culture with hSpS; assay type: cell-based, human; conditions: curare 100 μM; 2D hSkM co-cultured with hSpS; 2-minute period
Experimental: hSkM calcium imaging. For calcium imaging co-culture experiments, hSkM were plated on 24-well plates as described above and differentiated with Skeletal Muscle Cell Differentiation Medium. After 6-7 days of exposure to differentiation medium, hSkM were co-cultured with hSpS or hCS. […] One hSpS or hCS were placed per well. hSkM-spheroid co-cultures were left undisturbed for two days, and half medium was carefully replaced every other day thereafter. Calcium imaging was performed after 6-7 days of co-culture. Cultures were incubated with Cal-590 AM (10 μM, AAT Bioquest) and PowerLoad (1:100, Invitrogen) for 30 minutes at 37° C., washed once for 10 minutes with full medium and then imaged. A Leica SP8 confocal microscope with a resonant scanner was used for imaging. Spontaneous calcium activity was recorded for 2 min (10 frames per second) in 6-9 fields per well, and for each field the distance from the spheroid was measured.
Calcium imaging. Calcium imaging data was processed using ImageJ (Fiji) and custom MATLAB routines. […] A total number of 798 (hSkM condition), 652 (hCS+hSkM condition), 1006 (hSpS+hSkM condition) and 727 (hSpS+hSkM+curare condition) hSkM fibers were analyzed. Following ROI registration, raw time-series movies were transformed to relative changes in fluorescence: dF/F(t)=(F(t)−F0)/F0, where F0 represented the 5th percentile value of the time series of each ROI. […]

hCS-hSC-hSkM assembloid = assay: Glutamate uncaging in hCS-hSC-hSkM assembled spheroids (Example 1), hSkM contraction; conditions: tubocurarine 100 μM
Description: For cortico-spinal-muscle assembled spheroids, hCS-hSC assembled spheroids were placed on tissue culture inserts and positioned so that hSC was in contact with the 3D hSkM constructs. Media was changed every other day.
The FRAP module of the Leica SP8 confocal microscope was used to uncage glutamate using UV light.

Light induced responses (muscle displacement/contraction) upon hCS optogenetic stimulation [1]: completely abolished
Compound: N[C@@H](CCCP(=O)(O)O)C(=O)O [APV]

Compound: C[C@H](NC(=O)Cc1cc(F)cc(F)c1)C(=O)N[C@H](C(=O)OC(C)(C)C)c1ccccc1 [DAPT]
Increase in the proportion of motor neurons (hSpS [2]): approximately three-fold
Expression of some interneuron markers (GATA3, EN1, EVX1) (hSC [3]): lower expression
Expression of the MN markers ISL1 and HB9 (hSC [3]): higher expression
Cytoarchitecture of hSC (position of cell bodies and axons) (hSC [4]): cell bodies were found on the inside of the spheroid, while axons were found on the outside of hSC

Compound: COc1ccc([N+](=O)[O-])c2c1CCN2C(=O)CC[C@H](N)C(=O)O [MNI-caged glutamate, MNI-caged-L-glutamate]
Muscle contraction upon uncaging in hCS ([5]; 405 nm uncaging on hCS): robust muscle contraction
hSkM contraction upon stimulation of hSpS ([5]; 405 nm uncaging on hSpS): coupled with hSkM contraction
Response to glutamate uncaging of hCS (hCS-hSkM assembloid): did not elicit a response
hSkM contraction upon photostimulation of hSpS (hSpS-hSkM assembloids): resulted in hSkM contraction

Compound: CNC1CCC(N(Cc2cccc(-c3ccncc3)c2)C(=O)c2sc3ccccc3c2Cl)CC1 (centres unmarked) [SAG]
Expression of ventral progenitor marker genes OLIG2, NKX6-1, FOXA2 and post-mitotic markers CHX10 and ISL1 (hSpS [6]; high SAG exposure): higher expression

Compound: COc1cc2c3cc1Oc1cc(ccc1O)C[C@@H]1c4c(cc(OC)c(O)c4Oc4ccc(cc4)C[C@@H]3N(C)CC2)CC[N+]1(C)C [curare, (+)-tubocurarine chloride pentahydrate]
Contraction activity in hSpS-limb assembloids [7]: completely blocked
Increase in proportion of active hSkM (spontaneous calcium activity) in hSpS-hSkM (hSkM): blocked
Muscle contraction upon glutamate uncaging in hCS ([5]; 100 μm curare): blocked; also recorded: stops
hSkM contraction after glutamate uncaging on hSC (hCS-hSC-hSkM assembloid): blocked

Compound: FGF-2: growth factor FGF-2 (R&D Systems)
Rostro-caudal fate (HOXA2 expression pattern) (hSpS [6]; high levels of RA and low levels of FGF-2): more rostral fates
Rostro-caudal fate (HOXC9 expression) (hSpS [6]; low levels of RA and high levels of FGF-2): more caudal fates

Light induced responses (muscle displacement/contraction) upon hCS optogenetic stimulation [1]: completely abolished
Compound: NBQX
